We go through two compounds from patent US20250367084A1, “Micellar Composition” (Phytoceutical Limited, priority 2022, published 2025).

For data set [1] the following is noted: cited from earlier work.
The subject of data set [2] is adult human dermal fibroblast (HDFa) cells. Briefly: Cytotoxicity of retinol (Presto Blue / WST-1). It counts as cell-based. Conditions: 24 h exposure. On the technique in general: Formazan colour is commonly taken as a measure of viable cells.
Method: The cytotoxicity of retinol was determined.
Experiment 1: A solution of retinol (20 mg/mL) in ethanol (absolute) was prepared. The solution was diluted to 2 mg/mL, forming a light yellow emulsion. The emulsion was diluted in optiMem to provide concentrations of 5, 2.5, 1.25, 0.625 and 0.31 μg/mL retinol. Untreated and detergent controls were included for comparison. Using a Presto Blue assay, adult human dermal fibroblast (HDFa) cells (5 k per well) were exposed to the solutions for 24 h.
Experiment 2: A solution of retinol (20 mg/mL) in 1,2-propanediol was prepared. The solution was diluted to 2 mg/mL, forming an off-white emulsion. The emulsion was diluted in optiMem to provide concentrations of 10, 5, 2.5, 1.25, 0.625 and 0.31 μg/mL retinol. Untreated and detergent controls were included for comparison. Using a WST-1 probe, HDFa cells (5 k per well) were exposed to the solutions for 24 h.
Experiment 3: A solution of retinol (20 mg/mL) in ethanol (absolute) was prepared. The solution was diluted to 2 mg/mL, forming an light yellow emulsion. The emulsion was diluted in optiMem to provide concentrations of 10, 5, 2.5, 1.25, 0.625 and 0.31 μg/mL retinol. Untreated and detergent controls were included for comparison. Using a WST-1 probe, HDFa cells (5 k per well) were exposed to the solutions for 24 h.

As to `C=C(C)[C@@H]1CCC(C)=C[C@H]1c1c(O)cc(CCCCC)cc1O` [CBD, cannabidiol], the “log P” value in data set [1] was approximately 6.3. In the case of `CC1=C(/C=C/C(C)=C/C=C/C(C)=C/CO)C(C)(C)CCC1` [retinol, Retinol], the “concentration at which retinol is cytotoxic to the HDFa cell line” value in data set [2] (5 k cells per well) is not below 10000 ng/mL. For the same compound, in data set [2] (concentration below 10 μg/mL), the “cytotoxicity at concentration below 10 μg/mL” value is recorded as “only little, if any, cytotoxicity”.

In general, log P refers to a log measure of how a compound divides between an organic and an aqueous phase.
